Measured values published in PubChem BioAssay (NCI).
Where “and” joins values, the source holds several entries; their conditions need not be identical. Equal entries are not always repeated.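 Protocol summary: plate cells (96-well), add compound at 5 concentrations, incubate 48 h, interpolate endpoints linearly. GI50 is the concentration that inhibits growth by half. Definition used: TGI = concentration required for complete inhibition of growth.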

Tests used:
Assay in all cases: NCI tumour cell line growth inhibition, 48 h
[1] = system: MDA-MB-435
[2] = system: HT29 colon
[3] = system: T-47D breast
[4] = system: HS 578T breast
[5] = system: MCF7 breast
[6] = system: HCC-2998 colon

Structure (SMILES)	TGI [1] [µM]	TGI [2]	TGI [3]	TGI [4]	TGI [5]	GI50 [1] [µM]	GI50 [2]	GI50 [6]	TGI [6]	GI50 [3]	GI50 [4]	GI50 [5]
COc1ccc(-c2cc(-c3cc(C)cc(Br)c3O)no2)cc1	> 100	> 100 µM	34 µM	> 100 µM	42.4 µM	–	–	–	–	–	–	–
CCCCC(CC)COC(=O)C[N+](C)(C)CCOC(c1ccccc1)c1ccccc1 (centres undefined)	3.09	13.1 µM	4.44 µM	6.68 µM	4.34 µM	1.71	3.55 µM	1.75 µM	3.29 µM	1.91 µM	2.08 µM	1.99 µM
COc1cc(OC)c(C(=O)/C=C/c2cccc(C(F)(F)F)c2)c(OC)c1	6.57	4.75 µM	9.43 µM	28.6 µM	7.38 µM	1.61	1.69 µM	2.11 µM	6.89 µM	1.61 µM	3.93 µM	1.12 µM
CCOC(=O)C1CCN(S(=O)(=O)/N=C2/NC(=O)NC2=C(Cl)Cl)CC1	4.66	4.3 µM	32.9 µM	65.3 µM	22 µM	1.93	2.2 µM	2.05 µM	3.67 µM	4.41 µM	9.14 µM	0.33 µM
CCc1nc2cc(F)c(/C=C/C(=O)NO)cc2c(=O)n1CCc1ccccc1	11.5	12.1 µM	0.853 µM	26.9 µM	> 100 µM	0.445	0.343 µM	0.381 µM	12.7 µM	0.22 µM	0.489 µM	0.302 µM
C=C1C(=O)O[C@H]2[C@H]1CC/C(COC(=O)NCCCCNC(=O)OC/C1=C/CC[C@@]3(C)O[C@H]3[C@H]3OC(=O)C(=C)[C@@H]3CC1)=C\CC[C@@]1(C)O[C@@H]21	3.41	2.05 µM	4.17 µM	8.14 µM	–	1.24	0.605 µM	2.35 µM	4.78 µM	1.51 µM	2.54 µM	–
COc1ccc(/C=C/c2c(C(=O)/C=C/c3ccccc3)c(C)nc3ccccc23)cc1	5.69	> 100 µM	5.11 µM	–	7.74 µM	2.18	2.4 µM	1.88 µM	3.48 µM	1.77 µM	–	1.37 µM
CCCC(CCC)NCC(O)c1cc(-c2ccc(C(F)(F)F)cc2)nc(C(F)(F)F)c1 (centres undefined)	3.74	3.32 µM	3.3 µM	4.14 µM	2.87 µM	1.96	1.83 µM	1.68 µM	3.1 µM	1.7 µM	1.69 µM	1.43 µM
COc1ccc(C(=O)c2cc(C)c(OC)c(C)c2)c(OC)c1O	–	> 55.6 µM	> 100 µM	> 100 µM	> 100 µM	–	3.73 µM	0.127 µM	> 27.4 µM	5.95 µM	0.0274 µM	0.235 µM
Cc1cc(C)c(NC(=O)c2sc3nc4c(cc3c2N)C(=O)CCC4)c(C)c1	–	11.1 µM	> 63.5 µM	> 100 µM	> 100 µM	–	3.09 µM	3.07 µM	> 78.2 µM	5 µM	4.51 µM	2.09 µM
S=c1ssc(N2CCOCC2)c1Cl	73.7	> 100 µM	> 100 µM	–	–	25	47.4 µM	30.6 µM	> 100 µM	> 100 µM	–	–
Cc1cc2nc(C=C(C(F)(F)F)C(F)(F)F)oc2cc1C	4.21	7.76 µM	8.53 µM	8.84 µM	> 10 µM	–	–	–	6.9 µM	–	–	–
O=C(Nc1n[nH]c2cc(-c3ccccc3)ccc12)C1CC1	> 25	> 25 µM	> 25 µM	> 25 µM	> 25 µM	0.721	2.31 µM	8.07 µM	> 25 µM	17.8 µM	18.9 µM	3.95 µM
O=C1c2cccnc2-c2nc(-c3ccc(Cl)cc3)cc3c2c1nc1ccccc13	86.4	–	> 100 µM	> 100 µM	75.4 µM	22.5	–	> 100 µM	> 100 µM	> 100 µM	29 µM	18.8 µM
c1ccc(Sc2ccc(Cc3nc4cc5ccccc5cc4[nH]3)cc2)cc1	> 67.7	> 100 µM	26.2 µM	91.5 µM	> 100 µM	11.9	8.54 µM	–	–	5.2 µM	17.7 µM	6.73 µM
CN1CCc2nc(N)nc(-c3nc(N)nc4c3CN(C)CC4)c2C1	> 100	> 100 µM	> 100 µM	> 100 µM	> 100 µM	–	–	–	–	–	–	–
Cc1cc(C(=O)Nc2ccc3cc(CN4CCOCC4)ccc3n2)c(C)n1-c1ccccc1	5.22	> 100 µM	4.56 µM	44.6 µM	10.8 µM	1.38	2.71 µM	8.78 µM	> 100 µM	0.393 µM	4 µM	1.87 µM
COc1cc2ncnc(-n3ncc4cc(NC(=O)Nc5ccccc5)ccc43)c2cc1OC	33.9	10.9 µM	1.37 µM	3.37 µM	1.9 µM	1.4	0.615 µM	1.88 µM	11.2 µM	0.183 µM	0.299 µM	0.234 µM
CC(C)c1c(O)c(O)c2c(c1O)C(=O)C(O)=C1C(C)(C)CCC[C@@]12C	10.1	10.2 µM	16.5 µM	43.5 µM	12.7 µM	–	–	–	10.4 µM	–	–	–
COc1ccc(-c2nc3ccccn3c2/C=C/C(=O)c2cc(OC)c(OC)c(OC)c2)cc1OC	–	> 100 µM	> 100 µM	9.82 µM	> 100 µM	–	3.2 µM	3.79 µM	15.1 µM	3.01 µM	1.85 µM	2.76 µM
Cc1ccc(NC(=O)c2cccc(C(C)(C)C#N)c2)cc1Nc1ccc2ncn(C)c(=O)c2c1	> 100	> 100 µM	> 100 µM	> 100 µM	> 100 µM	0.0625	0.032 µM	0.0676 µM	> 100 µM	3.66 µM	8.65 µM	4.4 µM

Structure (SMILES)	TGI [1] [µM]	TGI [2]	TGI [3]	TGI [4]	TGI [5]	GI50 [1] [µM]	GI50 [2]	GI50 [6]	TGI [6]	GI50 [3]	GI50 [4]	GI50 [5]
CC(C)c1ccc(-c2cc(-c3cn[nH]c3-c3ccccn3)ccn2)cc1	> 25	> 19.6 µM	> 23.7 µM	> 25 µM	> 25 µM	9.42	6.92 µM	10.4 µM	> 25 µM	6.96 µM	> 16.2 µM	> 18.9 µM
CC/C=C\C[C@H](O)C/C=C1/C(=O)C=C[C@@H]1C/C=C\CCCC(=O)OC	10	3.8 µM	12.8 µM	40.1 µM	3.62 µM	1.19	1.61 µM	2.09 µM	3.68 µM	2.52 µM	5.18 µM	0.376 µM
CN1CCN(CCCNc2nc3ccc(Oc4ccc(NC(=O)Nc5cc(C(F)(F)F)ccc5F)cc4)cc3[nH]2)CC1	7.78	7.93 µM	7.21 µM	8.26 µM	7.61 µM	4.1	4.09 µM	4.35 µM	8.1 µM	3.43 µM	3.67 µM	4.05 µM
O=C1/C(=C(/c2ccccc2)N2CCOCC2)Cc2ccccc21	6.87	5.28 µM	–	12.9 µM	7.38 µM	2.17	1.83 µM	2.08 µM	4.26 µM	–	2.63 µM	1.54 µM
COc1cc2c3c(n(CCCN)c(=O)c2cc1OC)-c1ccc(C#N)cc1C3=O	39.9	29.1 µM	34.9 µM	41.5 µM	40.1 µM	18.6	8.52 µM	3.05 µM	15 µM	13.2 µM	18 µM	8.36 µM
N#Cc1cc(-c2cc3ccccc3o2)oc1N	16.9	11.3 µM	59 µM	3.41 µM	15.3 µM	3.69	3.35 µM	4.92 µM	18.9 µM	3.89 µM	0.401 µM	2.66 µM
CC1(C)C(=O)/C(=C\c2cccnc2)C[C@]2(C)[C@H]3CC[C@@H]4[C@H]5[C@H](C(=O)/C=C/c6cccnc6)CC[C@]5(C(=O)O)CC[C@@]4(C)[C@]3(C)CC[C@@H]12	12.9	10.8 µM	24.6 µM	> 100 µM	10.7 µM	3.2	3.09 µM	1.88 µM	3.55 µM	3.75 µM	7.61 µM	2.56 µM
COC(=O)Nc1nc2ccc(C3(c4ccc(F)cc4)OCCO3)cc2[nH]1	0.238	> 100 µM	–	> 69.9 µM	> 100 µM	0.0436	0.317 µM	1.99 µM	> 100 µM	–	0.315 µM	0.18 µM
CC1=CC(=O)C=CC1=O	25.4	40.9 µM and 69.6 µM	36.1 µM and 6.78 µM	47.1 µM and 246 µM	34.5 µM and 41.4 µM	12.3	16.4 µM and 26.9 µM	13.2 µM and 18.6 µM	26.2 µM and 35.4 µM	11.9 µM and 2.54 µM	14.4 µM and 24.9 µM	14.7 µM and 15.4 µM
C=C(C)[C@@H]1CC[C@]2(CO)CC[C@]3(C)[C@H](CC[C@@H]4[C@@]5(C)C=C(C#N)C(=O)C(C)(C)[C@@H]5CC[C@]43C)[C@@H]12	–	4.76 µM	5.79 µM	6.84 µM	7.66 µM	–	1.16 µM	2.03 µM	4.22 µM	1.12 µM	1.89 µM	0.34 µM
CCc1nc(N)nc(N)c1-c1ccc(NC)c([N+](=O)[O-])c1	> 100	33.7 µM	> 100 µM	> 100 µM	> 87.3 µM	–	–	–	65.7 µM	–	–	–
CCNCCNc1cc(-c2ccc(C(F)(F)F)cc2)c(C#N)c2nc3ccccc3n12	2.56	1.29 µM	2.6 µM	4.39 µM	2.18 µM	1.28	0.365 µM	1.8 µM	3.4 µM	0.79 µM	1.96 µM	0.642 µM
Cc1cc2ncnn2cc1Nc1ncc2c(n1)n(C1CCOCC1)c(=O)n2C	> 100	> 100 µM	6.42 µM	23.4 µM	> 100 µM	8.01	6.64 µM	6.56 µM	> 100 µM	1.41 µM	2.84 µM	3.21 µM
C/C(=N\Nc1ccc(Cl)cn1)c1ccc2ccccc2n1	> 100	> 100 µM	68.4 µM	> 100 µM	> 100 µM	4.45	5.05 µM	3.23 µM	> 100 µM	3.48 µM	4.78 µM	2.85 µM
CN(C)CCNc1ccc(CO)c2oc3ccc(O)cc3c(=O)c12	27.1	44.9 µM	59.4 µM	33.4 µM	58.1 µM	–	–	–	27.9 µM	–	–	–
COc1ccc(C(=O)c2cc(OC)c(OC)c(OC)c2)cc1/C=C/C(=O)c1ccc(F)cc1	13.6	5.63 µM	27.8 µM	> 100 µM	11.1 µM	2.88	2.44 µM	7.29 µM	22.6 µM	3.54 µM	4.48 µM	2.3 µM
COc1cc2c(cc1OCCCCC(=O)Nc1cc3c4ccccc4ccc3c3ccccc13)N=C[C@@H]1CCCN1C2=O	> 92.9	> 76.2 µM	> 100 µM	> 100 µM	34.1 µM	5.44	5.86 µM	10.9 µM	33.5 µM	11.1 µM	17.7 µM	3.45 µM
OCC1OC(n2cnc3c2NC=NC[C@H]3O)C(Cl)C1O (some centres undefined)	> 100	> 100 µM	> 100 µM	> 100 µM	> 100 µM	–	–	–	> 100 µM	–	–	–
Nc1nc(Nc2cccnc2)sc1C(=O)c1ccccc1F	24.3	31.2 µM	11.9 µM	10.8 µM	8.41 µM	3.74	2.96 µM	0.309 µM	0.972 µM	1.83 µM	3.02 µM	1.94 µM
COc1ccc(-c2[nH]c3ccc(OC)cc3c2/C=C(\C#N)S(=O)(=O)c2ccccc2)cc1	> 100	> 32.2 µM	12.1 µM	7.25 µM	> 100 µM	0.272	0.435 µM	1.95 µM	5.87 µM	0.901 µM	0.531 µM	0.774 µM
